These results are taken from patent US20220177511A1, “SERIES OF HALOGENATED TETRACYCLIC TRITERPENE DERIVATIVES AND THEIR PREPARATION AND APPLICATION” (SHANGHAI KING-X BIOTECH CO., LTD, priority 2019, published 2022).

Series [1] can be described thus: Solubility test in water and FaSSIF. In kind it is physicochemical. Conditions: 37° C., up to 24 hours.
The nature of series [2]: Pharmacokinetics of parent HHQ16 after single intragastric administration of compound 2 prodrugs in rats. Type of series: in vivo, rat. Conditions: HHQ16 (parent) measured in rats after single intragastric 10 mg/kg of prodrug (dose converted to HHQ16). Here is the method:
1. The materials and methods for oral absorption test are the same as described in example 44.
The pharmacokinetic parameters of HHQ16 measured after a single intragastric administration of 10 mg/kg of compound 2 prodrug in rats are summarized in Table 2 below.
The half-life was prolonged to varying degrees.

Series [3] deals with C57 mouse CHF model. Kind of series: In vivo efficacy on chronic heart failure in mice (coronary artery ligation, echocardiography), enalapril control. Conditions: positive control 2 mg/kg, p<0.0001 (FIG. 6). Here is the method:
C57 mouse coronary artery ligation method was used in this experiment to prepare the mouse CHF model. The differences in echocardiography, hemodynamics and histopathology of the model were observed after administration. Test substance: compound 2. Solvent: 0.3% sodium carboxymethyl cellulose. Dosage: 1 mg/kg, 3 mg/kg, 10 mg/kg, 30 mg/kg and 100 mg/kg. Route of administration: intragastric. Control drug: enalapril 2 mg/kg. Strain: C57 mouse; Age: 7 weeks; Weight: 18-20 g; Gender: Male; Grade: SPF C57 mouse CHF model was established by coronary artery ligation method in this experiment. The differences in echocardiography, hemodynamics and histopathology of the model were observed after administration. 5 dose groups were set for compound 2 in this experiment. Enalapril was selected as the positive control. Once daily for 28 consecutive days. The doses for each group was 1 mg/kg, 3 mg/kg, 10 mg/kg, 30 mg/kg and 100 mg/kg. Positive control group: Enalapril (2 mg/kg) was administered after CHF was established. The mice were anesthetized in a box filled with isoflurane. After the mice were anesthetized, the left 4th intercostal space was opened to expose the left atrial appendage and left ventricle. It can be seen that the left coronary artery runs downward from the middle of the left atrial appendage to the anterior wall of the left ventricle. The coronary artery is sutured at a high position about 1 mm from the lower border of the left atrial appendage. After ligation, the myocardium gradually changes from fleshy red to pale white, indicating myocardial infarction. The model is successfully established, and the chest is closed layer by layer. After the spontaneous breathing of the mice recovered, the mice were caged and reared in a day-night cycle with free access to water and food. After being reared for 30 days, the chronic heart failure model was detected by echocardiography, and the mice with successful chronic heart failure model were selected. Qualified CHF mice screened by echocardiography were randomly grouped. Mice were given compound 2 by intragastric administration once daily for 28 consecutive days. The body weight of mice was measured every week, and echocardiography was performed after 28 days of administration. After the […] anesthetized, 1 mm^3 tissue was taken from the hearts of 3 mice in each group, fixed with electron microscope fixative, and detected by transmission electron microscope to observe the ultrastructure of the heart. All remaining heart tissues were fixed with 10% formaldehyde, and stained with HE for histopathology to observe histopathological changes.

As a reminder, the Solubility is the concentration that dissolves in the medium under given conditions. A high value points to a readily soluble substance. As a reminder, the Cmax is the maximum level reached in the sampled fluid or tissue. In the case of `CC(C)C(N)C(=O)OC1CC2C3(C)CC(O)C(C4(C)CCC(C(C)(C)O)O4)C3(C)CCC23CC32CCC(F)(F)C(C)(C)C12.Cl` (mixture of isomers) [Compound 2-15, 1-(((2aR,3R,4S,5aS,5bS,7S,7aR,11aR,12aS)-9,9-difluoro-4-hydroxy-3-((2S,5S)-5-(2-hydroxypropan-2-yl)-2-methyltetrahydrofuran-2-yl)-2a,5a,8,8-tetramethyltetradecahydro-1H,12H-cyclopenta[a]cyclopropa[e]phenanthren-7-yl)oxy)-3-methyl-1-oxobutan-2-aminium Chloride], the Solubility in series [1] (FaSSIF (pH 6.5)) is reported as 3.02 mg/mL. Besides, the Solubility in series [1] (Water) is reported as 0.77 mg/mL. In series [2], the AUC0-t is 4.5 µg·h/mL, the Cmax was found to be 0.451 µg/mL and the t1/2 is listed as 8.2 h.

The compound `CC(N)C(=O)N(C)CC(=O)OC1CC2C3(C)CC(O)C(C4(C)CCC(C(C)(C)O)O4)C3(C)CCC23CC32CCC(F)(F)C(C)(C)C12.Cl` [Compound 2-29, (S)-1-((2-(((2aR,3R,4S,5aS,5bS,7S,7aR,11aR,12aS)-9,9-difluoro-4-hydroxy-3-((2S,5S)-5-(2-hydroxypropan-2-yl)-2-methyltetrahydrofuran-2-yl)-2a,5a,8,8-tetramethyltetradecahydro-1H,12H-cyclopenta[a]cyclopropa[e]phenanthren-7-yl)oxy)-2-oxoethyl)(methyl)amino)-1-oxopropan-2-aminium Chloride] registered a Solubility in series [1] (FaSSIF (pH 6.5)) of 3.13 mg/mL. The compound also came in with a Solubility in series [1] (Water) of 0.95 mg/mL. Moreover, in series [2], the AUC0-t came to 5.221 µg·h/mL, the peak concentration (Cmax) is 0.605 µg/mL and the t1/2 worked out at 5.6 h.

In the case of “(S)-1-(((2aR,3R,4S,5aS,5bS,7S,7aR,11aR,12aS)-9,9-difluoro-4-hydroxy-3-((2S,5S)-5-(2-hydroxypropan-2-yl)-2-methyltetrahydrofuran-2-yl)-2a,5a,8,8-tetramethyltetradecahydro-1H,12H-cyclopenta[a]cyclopropa[e]phenanthren-7-yl)oxy)-1-oxopropan-2-aminium Chloride [Compound 2-17]”, in series [2], the AUC0-t amounted to 5.222 µg·h/mL, the Cmax turned out to be 0.501 µg/mL and the t1/2 was 7.8 h.

`CC(C)(O)[C@@H]1CC[C@@](C)([C@H]2[C@@H](O)C[C@@]3(C)[C@@H]4C[C@H](OC(=O)C[C@H]5CCCN5)[C@H]5C(C)(C)C(F)(F)CC[C@@]56C[C@@]46CC[C@]23C)O1.Cl` [Compound 2-3, (R)-2-(2-(((2aR,3R,4S,5aS,5bS,7S,7aR,11aR,12aS)-9,9-difluoro-4-hydroxy-3-((2S,5S)-5-(2-hydroxypropan-2-yl)-2-methyltetrahydrofuran-2-yl)-2a,5a,8,8-tetramethyltetradecahydro-1H,12H-cyclopenta[a]cyclopropa[e]phenanthren-7-yl)oxy)-2-oxoethyl)pyrrolidin-1-ium Chloride]: the Solubility in series [1] (FaSSIF (pH 6.5)) is reported as 1.8 mg/mL. This compound also yielded a Solubility in series [1] (Water) of 0.95 mg/mL. In series [2], the AUC0-t turned out to be 3.2 µg·h/mL, the Cmax turned out to be 0.46 µg/mL and the t1/2 is 3.98 h.

In series [1] (FaSSIF (pH 6.5)), `CN(CC(=O)OC1CC2C3(C)CC(O)C(C4(C)CCC(C(C)(C)O)O4)C3(C)CCC23CC32CCC(F)(F)C(C)(C)C12)C(=O)C(N)Cc1ccccc1.Cl` [Compound 2-28, (R)-1-((2-(((2aR,3R,4S,5aS,5bS,7S,7aR,11aR,12aS)-9,9-difluoro-4-hydroxy-3-((2S,5S)-5-(2-hydroxypropan-2-yl)-2-methyltetrahydrofuran-2-yl)-2a,5a,8,8-tetramethyltetradecahydro-1H,12H-cyclopenta[a]cyclopropa[e]phenanthren-7-yl)oxy)-2-oxoethyl)(methyl)amino)-1-oxo-3-phenylpropan-2-aminium Chloride] gave a Solubility of 2.85 mg/mL. This compound also yielded a Solubility in series [1] (Water) of 0.65 mg/mL. Besides, in series [2], the AUC0-t was found to be 4.332 µg·h/mL, the Cmax amounted to 0.475 µg/mL and the t1/2 is 6.2 h.

With `CCOC(=O)[C@H](CCc1ccccc1)N[C@@H](C)C(=O)N1CCC[C@H]1C(=O)O` [Enalapril, reference compound], the “Cardiac output per minute (CO), day 28 vs day 0” value in series [3] was “very significant increase”.

On to `Br.CC(C)(O)C1CCC(C)(C2C(O)CC3(C)C4CC(OC(=O)CN)C5C(C)(C)C(F)(F)CCC56CC46CCC23C)O1` [Compound 2-16, 2-(((2aR,3R,4S,5aS,5bS,7S,7aR,11aR,12aS)-9,9-difluoro-4-hydroxy-3-((2S,5S)-5-(2-hydroxypropan-2-yl)-2-methyltetrahydrofuran-2-yl)-2a,5a,8,8-tetramethyltetradecahydro-1H,12H-cyclopenta[a]cyclopropa[e]phenanthren-7-yl)oxy)-2-oxoethan-1-aminium Bromide], for which, in series [1] (FaSSIF (pH 6.5)), the Solubility was found to be 5.3 mg/mL. Moreover, in series [1] (Water), the Solubility amounted to 0.95 mg/mL. For the same compound, in series [2], the AUC0-t is 4.623 µg·h/mL, the Cmax stood at 0.51 µg/mL and the t1/2 came out at 5.2 h.

Take `CC(O)C(N)C(=O)OC1CC2C3(C)CC(O)C(C4(C)CCC(C(C)(C)O)O4)C3(C)CCC23CC32CCC(F)(F)C(C)(C)C12.Cl` [Compound 2-20, (2S,3S)-1-(((2aR,3R,4S,5aS,5bS,7S,7aR,11aR,12aS)-9,9-difluoro-4-hydroxy-3-((2S,5S)-5-(2-hydroxypropan-2-yl)-2-methyltetrahydrofuran-2-yl)-2a,5a,8,8-tetramethyltetradecahydro-1H,12H-cyclopenta[a]cyclopropa[e]phenanthren-7-yl)oxy)-3-hydroxy-1-oxobutan-2-aminium Chloride]: the Solubility in series [1] (FaSSIF (pH 6.5)) is on record as 2.8 mg/mL. This compound yielded a Solubility in series [1] (Water) of 1.2 mg/mL. In addition, in series [2], the AUC0-t came out at 4.005 µg·h/mL, the Cmax is 0.582 µg/mL and the t1/2 amounted to 3.6 h.

Compound `CC(C)(O)[C@@H]1CC[C@@](C)([C@H]2[C@@H](O)C[C@@]3(C)[C@@H]4C[C@H](OC(=O)CNC(=O)CN)[C@H]5C(C)(C)C(F)(F)CC[C@@]56C[C@@]46CC[C@]23C)O1.Cl` [Compound 2-27, 2-((2-(((2aR,3R,4S,5aS,5bS,7S,7aR,11aR,12aS)-9,9-difluoro-4-hydroxy-3-((2S,5S)-5-(2-hydroxypropan-2-yl)-2-methyltetrahydrofuran-2-yl)-2a,5a,8,8-tetramethyltetradecahydro-1H,12H-cyclopenta[a]cyclopropa[e]phenanthren-7-yl)oxy)-2-oxoethyl)amino)-2-oxoethan-1-aminium Chloride] yielded a Solubility in series [1] (FaSSIF (pH 6.5)) of 4.3 mg/mL. In series [1] (Water), this compound yielded a Solubility of 1.3 mg/mL. In series [2], the AUC0-t is 3.005 µg·h/mL, the Cmax is 0.358 µg/mL and the t1/2 amounted to 7.5 h.

For the compound `CC(C)(O)[C@@H]1CC[C@@](C)([C@H]2[C@@H](O)C[C@@]3(C)[C@@H]4C[C@H](OC(=O)CNC(=O)[C@@H](N)CO)[C@H]5C(C)(C)C(F)(F)CC[C@@]56C[C@@]46CC[C@]23C)O1.Cl` [Compound 2-31, (S)-1-((2-(((2aR,3R,4S,5aS,5bS,7S,7aR,11aR,12aS)-9,9-difluoro-4-hydroxy-3-((2S,5S)-5-(2-hydroxypropan-2-yl)-2-methyltetrahydrofuran-2-yl)-2a,5a,8,8-tetramethyltetradecahydro-1H,12H-cyclopenta[a]cyclopropa[e]phenanthren-7-yl)oxy)-2-oxoethyl)amino)-3-hydroxy-1-oxopropan-2-aminium Chloride], in series [1] (FaSSIF (pH 6.5)), the Solubility was 6.25 mg/mL. This compound came in with a Solubility in series [1] (Water) of 1.65 mg/mL. In addition, in series [2], the AUC0-t was found to be 3.888 µg·h/mL, the Cmax stood at 0.403 µg/mL and the t1/2 is 4.5 h.

Consider `CC(C)(O)[C@@H]1CC[C@@](C)([C@H]2[C@@H](O)C[C@@]3(C)[C@@H]4C[C@H](OC(=O)[C@@H](N)CO)[C@H]5C(C)(C)C(F)(F)CC[C@@]56C[C@@]46CC[C@]23C)O1.Cl` [Compound 2-19, (S)-1-(((2aR,3R,4S,5aS,5bS,7S,7aR,11aR,12aS)-9,9-difluoro-4-hydroxy-3-((2S,5S)-5-(2-hydroxypropan-2-yl)-2-methyltetrahydrofuran-2-yl)-2a,5a,8,8-tetramethyltetradecahydro-1H,12H-cyclopenta[a]cyclopropa[e]phenanthren-7-yl)oxy)-3-hydroxy-1-oxopropan-2-aminium chloride], for which the Solubility in series [1] (FaSSIF (pH 6.5)) is given as 3.98 mg/mL. Moreover, the Solubility in series [1] (Water) worked out at 1.24 mg/mL. In series [2], the AUC0-t stood at 4.4 µg·h/mL, the Cmax worked out at 0.602 µg/mL and the t1/2 was 3.5 h.
